Source: PMC12040169 (PLOS Biology, 2025)

Test: in vitro
Details: human, hela cells, % viability

Row | SMILES | viability at 28.5 h, 10 µM
1 | O=C(COc1ccc(S(=O)(=O)N2CCCCC2)cc1)NCc1ccccn1 [CBK268517] | 91.6%
2 | CN(C)S(=O)(=O)c1ccc2[nH]cc(CCN)c2c1 [CBK268522C] | 99.7%
3 | O=C(O)CC(C(=O)O)c1ccc(Cl)cc1Cl (stereo not shown) [CBK268523] | 95.5%
4 | Cc1ccc(S(=O)(=O)N(C)CC(=O)NCc2nc(-c3ccccc3)no2)cc1 [CBK268524] | 93.4%
5 | COc1ccc(S(=O)(=O)N(CC(=O)N2CCc3ccccc3C2)C2CCCCC2)cc1Cl [CBK268525] | 97.9%
6 | Cc1nn2c(COc3ccc(NC(=O)C4CCCCC4)cc3)nnc2c2ccccc12 [CBK268528] | 104%
7 | O=C(O)CC(C(=O)O)c1ccc(F)cc1 (stereo not shown) [CBK268531] | 87.6%
8 | N#Cc1ccccc1Cn1cc(C(=O)COc2ccccc2)c2ccccc21 [CBK268532] | 90.5%
9 | Cn1c(Cc2cccs2)nnc1SCC(=O)c1c[nH]c2ccccc12 [CBK268534] | 102%
10 | CCOc1ccccc1OCc1nn2c(-c3ccncc3)nnc2s1 [CBK268535] | 111%
11 | O=C(Nc1cnn(C23CC4CC(CC(C4)C2)C3)c1)c1cnn2c(C(F)(F)F)cc(-c3ccco3)nc12 [CBK268538] | 52.4%
12 | CS(=O)(=O)N(CC(=O)Nc1ccccc1-c1ccccc1)c1ccc(F)c(Cl)c1 [CBK268539] | 91.2%
13 | Cn1c(NCc2ccccn2)nc2ccccc21 [CBK268544] | 110%
14 | COc1ccc(CNc2nc(-c3ccc(C)cc3)nn2C(=O)c2cccc([N+](=O)[O-])c2)cc1 [CBK268546] | 67.9%
15 | O=C(COc1ccc(S(=O)(=O)N2CCCCC2)cc1)N1CCC(Cc2ccccc2)CC1 [CBK268547] | 108%
16 | O=C(CSCc1ccc([N+](=O)[O-])cc1)Nc1c[nH]c(=O)[nH]c1=O [CBK268549] | 98.5%
17 | Fc1ccccc1COc1cccc(CNCc2ccccn2)c1 [CBK268552C] | 101%
18 | COC(=O)c1ccc2c(=O)n(CCN3CCOCC3)c(=S)[nH]c2c1 [CBK268553] | 69%
19 | Cc1ccc(S(=O)(=O)NCc2ccccc2)c(C)c1NS(C)(=O)=O [CBK268555] | 90.2%
20 | c1cnc2c(OCc3nc4ccccc4[nH]3)cccc2c1 [CBK268556] | 74.6%
21 | O=C(COc1ccc(S(=O)(=O)N2CCCC2)cc1Cl)Nc1ccc2c(c1)OCCO2 [CBK268559] | 116%
22 | CC(Oc1ccc(Cl)cc1Cl)C(=O)Nc1ccc(N2CCN(C)CC2)c(Cl)c1 (stereo not shown) [CBK268563] | 85%

Row | SMILES | viability at 28.5 h, 10 µM
23 | Cc1cccc(C(=O)Nc2ccccc2C(=O)N2CCN(C)CC2)c1 [CBK268565] | 89%
24 | O=C(O)c1cccc(C(=O)Nc2cccc(NC(=O)C3CCCO3)c2)c1 (stereo not shown) [CBK268566] | 108%
25 | Cc1ccc(SC(C)C(=O)O/N=C(\N)c2ccccn2)cc1 (stereo not shown) [CBK268567] | 111%
26 | Cc1ccccc1OC(C)C(=O)NCCCc1ccccc1 (stereo not shown) [CBK268571] | 88.3%
27 | CCOc1ccccc1NC(=O)c1ccc(CS(=O)(=O)c2ccc(C)cc2)cc1 [CBK268572] | 95.1%
28 | O=C(CCN1C(=O)c2cc(Cl)c(Cl)cc2C1=O)Nc1cccc(-c2cnc3ccccc3n2)c1 [CBK268575] | 114%
29 | Cc1ccc(NS(=O)(=O)c2cc(C(=O)N3CCN(C)CC3)ccc2C)cc1 [CBK268577] | 92.5%
30 | O=C(Nn1cnnc1)c1ccccc1CCc1ccccc1 [CBK268578] | 87.7%
31 | COc1cc(C)c(NC(=O)C(=S)NCc2ccco2)cc1C [CBK268582] | 103%
32 | COc1ccc(S(=O)(=O)N(CC(=O)Nc2ccc3c(c2)OCCO3)c2ccc(F)cc2)cc1 [CBK268584] | 114%
33 | Oc1c(C(Nc2cccnc2)c2ccccc2OCc2ccccc2)ccc2cccnc12 (stereo not shown) [CBK268587] | 71.5%
34 | O=C(NCc1ccc2c(c1)OCO2)c1ccccc1CCc1ccccc1 [CBK268591] | 107%
35 | CS(=O)(=O)Nc1ccc(C(=O)Nc2ccc(S(=O)(=O)N3CCCC3)cc2)cc1 [CBK268592] | 116%
36 | COc1ccc([N+](=O)[O-])cc1NC(=O)c1cc(Cl)c(OC)c(Cl)c1 [CBK268594] | 82.6%
37 | CN(Cc1nc(-c2ccncc2)no1)S(=O)(=O)c1ccc(Br)cc1 [CBK268598] | 94.6%
38 | Cc1cccc(C(=O)Nc2cccc(OCC(=O)O)c2)c1 [CBK268599] | 114%
39 | Cc1cc(OCc2nnc(SCC(=O)Nc3ccc(I)cc3)n2C)ccc1Cl [CBK268600] | 113%
40 | Cc1cc(C)cc(OCc2nnc(SCC(=O)Nc3c(F)cc(F)cc3Br)n2C)c1 [CBK268604] | 83.6%
41 | O=C(O)Cc1ccc(NC(=O)c2cccc(NC(=O)c3ccco3)c2)cc1 [CBK268606] | 96.7%
42 | CCn1c(SCc2nc(-c3cccs3)no2)nnc1-c1c[nH]c2ccccc12 [CBK268607] | 104%
43 | CCn1c(SCC(=O)Nc2c(Cl)cc(Cl)cc2Cl)nnc1-c1ccccc1F [CBK268609] | 102%
44 | Cc1ccc(SC(C)C(=O)Nc2cc(Cl)ccc2O)cc1 (stereo not shown) [CBK268610] | 87.9%

Row | SMILES | viability at 28.5 h, 10 µM
45 | O=C(O)c1ccc(C(=O)Nc2cccc(NC(=O)C3CCCO3)c2)cc1 (stereo not shown) [CBK268613] | 105%
46 | Cc1cc(Cl)cc(Br)c1OCCNCCN1CCOCC1 [CBK268615G] | 111%
47 | CN(CC(=O)O/N=C(\N)c1ccccn1)S(=O)(=O)c1ccc(Br)cc1 [CBK268617] | 96.9%
48 | CN(CC(=O)Nc1nnc[nH]1)S(=O)(=O)c1ccc(Br)cc1 [CBK268618] | 91.1%
49 | O=C(c1ccccc1CCc1ccccc1)N1CCN(Cc2ccc3c(c2)OCO3)CC1 [CBK268623] | 120%
50 | Cc1ccc(SC(C)C(=O)NCCCN2CCOCC2)cc1 (stereo not shown) [CBK268624] | 88.5%
51 | COc1ccccc1C(=O)Nc1ccccc1C(=O)Nc1ccc(C(=O)O)cc1 [CBK268625] | 94.7%
52 | CC(C)(C)c1ccc(C(=O)Nc2ccccc2C(=O)Nc2ccc(C(=O)O)cc2)cc1 [CBK268626] | 89.1%
53 | Cc1ccccc1OC(C)C(=O)NCCCN1CCOCC1 (stereo not shown) [CBK268628] | 112%
54 | COc1ccc(NC(=O)c2ccccc2CCc2ccccc2)c([N+](=O)[O-])c1 [CBK268632] | 97%
55 | CC(C)(C)C1CCc2c(sc(NC(=S)NC(=O)COc3ccccc3)c2C(N)=O)C1 (stereo not shown) [CBK268634] | 107%
56 | O=C(Nc1cccc(O)c1)c1ccc2c(c1)C(=O)N(Cc1ccco1)C2=O [CBK268640] | 95.6%
57 | COCCN1C(=O)c2ccc(C(=O)c3ccc4c(c3)C(=O)N(CCOC)C4=O)cc2C1=O [CBK268641] | 113%
58 | O=C(Nc1ccccc1-c1nc2ccccc2s1)c1sc2cc(Cl)ccc2c1Cl [CBK268642] | 88.5%
59 | Cc1cccnc1NC(=O)C(C)Oc1ccccc1 (stereo not shown) [CBK268643] | 90.2%
60 | COc1ccc(-c2noc(CSc3nnc(-c4c[nH]c5ccccc45)n3C)n2)cc1OC [CBK268644] | 88.8%
61 | Cc1ccc(S(=O)(=O)N(CC(=O)Nc2ccccc2F)c2cc(Cl)ccc2Cl)cc1 [CBK268647] | 111%
62 | CN(CC(=O)Nc1ccccc1C(N)=O)S(=O)(=O)c1ccc(Br)cc1 [CBK268648] | 98.7%
63 | O=C(NC(=S)Nc1cc(-c2nc3ccccc3[nH]2)ccc1Cl)c1ccccc1[N+](=O)[O-] [CBK268649] | 93.7%
64 | CN1CCN(C(=O)CNC(=O)CNS(=O)(=O)c2ccccc2)CC1 [CBK268651] | 90.9%
65 | CC(C)(C)N1C(=O)c2ccc(C(=O)NNC(=O)C(C#N)C(=O)c3ccc4c(c3)C(=O)N(C(C)(C)C)C4=O)cc2C1=O (stereo not shown) [CBK268652] | 90.3%
66 | Cc1ccc(SCCN2CCN(Cc3ccccc3)CC2)cc1 [CBK268653G] | 99.1%

Row | SMILES | viability at 28.5 h, 10 µM
67 | COc1ccccc1NC(=O)CNC(=O)c1ccc([N+](=O)[O-])cc1 [CBK268657] | 91.9%
68 | CCOC(=O)N1CCN(C(=O)c2ccc(CS(=O)(=O)c3ccc(C)cc3)cc2)CC1 [CBK268659] | 88.3%
69 | CCOC(=O)c1ccc(NC(=O)C(C)Oc2ccccc2C)cc1 (stereo not shown) [CBK268660] | 102%
70 | COc1ccc(OC)c(NC(=O)Cn2cc(C(C)=O)c3ccccc32)c1 [CBK268661] | 92.5%
71 | Cc1[nH]c2ccccc2c1C(=O)CSc1nnc(Cc2cccs2)n1C [CBK268663] | 105%
72 | CN(C)S(=O)(=O)N(CC(=O)Nc1ccccc1C(F)(F)F)c1ccccc1 [CBK268665] | 102%
73 | CCc1cccc(C)c1NC(=O)CN(c1cccc(Cl)c1Cl)S(=O)(=O)c1ccc(C)cc1 [CBK268666] | 84.7%
74 | Cc1ccc(O)c(NC(=O)COc2ccc(Cl)cc2)c1 [CBK268670] | 108%
75 | NC(=O)CSc1nnc(-c2cccnc2)n1Cc1ccccc1 [CBK268672] | 99.2%
76 | O=C(Nc1ccc2oc(-c3cccnc3)nc2c1)c1cc([N+](=O)[O-])ccc1N1CCOCC1 [CBK268674] | 95%
77 | Cc1ccc(NC(=O)CSc2nnc3c4c5c(sc4nc(-n4nc(C)cc4C)n23)COC(C)(C)C5)cc1 [CBK268675] | 93.2%
78 | Cc1cccc(N(CC(=O)Nc2cccnc2)S(=O)(=O)c2ccc(Cl)cc2)c1 [CBK268676] | 85.3%
79 | Cc1ccc(C)c2c1c1nc3ccccc3nc1n2Cc1nnc(-c2ccccc2)o1 [CBK268677] | 104%
80 | CCc1nnc(SCC(=O)N2c3ccccc3Sc3ccccc32)[nH]1 [CBK268687] | 110%
81 | CCn1c(Cc2ccccc2)nnc1SCC(=O)Nc1cc(Cl)ccc1O [CBK268689] | 104%
82 | COc1ccc(C(=O)NCCCSc2nc(C(C)(C)C)cc(C(F)(F)F)n2)cc1 [CBK268690] | 99.7%
83 | CSc1ncc(Cl)c(C(=O)Nc2nnc(SC/C=C/c3ccccc3)s2)n1 [CBK268691] | 93.5%
84 | Cc1cc(C)c(NC(=O)CSc2nc(C)c(Cc3ccccc3Cl)c(O)n2)c([N+](=O)[O-])c1 [CBK268693] | 90.4%
85 | CCN(CC(=O)O)S(=O)(=O)c1cc(C)ccc1OC [CBK268694] | 98.7%
